These results are taken from ChEMBL document CHEMBL3399953, “Structure-assisted ligand-binding analysis using fluorogenic photoaffinity labeling” (Bioorg Med Chem Lett, 2015).

The source made the active and inactive calls. No cut-off for these calls is given here.

Assay [1] has as its target Glutamate dehydrogenase 1, mitochondrial (Bos taurus) (UniProt P00366). Put plainly: Binding affinity to bovine glutamate dehydrogenase ATP binding site using assessed as photo labeling level at 80 uM by photo affinity labeling/reverse-phase HPLC of Lys-Cdigest assay in presence of ADP.
For assay [2] the target is unchanged. Put plainly: Binding affinity to bovine glutamate dehydrogenase ATP binding site using assessed as fluorescence intensity at 80 uM by photo affinity labeling/reverse-phase HPLC of Lys-Cdigest assay in presence of ATP.
Assay [3] shares this target. As to the kind of experiment: Binding affinity to bovine glutamate dehydrogenase ATP binding site using assessed as photo labeling peak time at 80 uM by photo affinity labeling/reverse-phase HPLC of Lys-Cdigest assay in presence of 100 uM NADH/10 mM glutamate.
For assay [4] the target is unchanged. Put plainly: Binding affinity to bovine glutamate dehydrogenase ATP binding site using assessed as photo labeling level at 80 uM by photo affinity labeling/reverse-phase HPLC of Lys-Cdigest assay in presence of NADH.
The target is the same in assay [5]. As to the kind of experiment: Binding affinity to bovine glutamate dehydrogenase ATP binding site using assessed as photo labeling level at 80 uM by photo affinity labeling/reverse-phase HPLC of Lys-Cdigest assay in presence of ATP.
The target is the same in assay [6]. Put plainly: Binding affinity to bovine glutamate dehydrogenase ATP binding site using assessed as decrease in photo labeling peak time at 80 uM by photo affinity labeling/reverse-phase HPLC of Lys-Cdigest assay in presence of 100 uM NADH/10 mM glutamate relative to NADH alone.
Assay [7] shares this target. As to the kind of experiment: Binding affinity to bovine glutamate dehydrogenase ATP binding site using assessed as coumarin-labeled pepdite retention time at 80 uM by photo affinity labeling/reverse-phase HPLC of Lys-Cdigest assay in presence of ATP.

Sequence of Glutamate dehydrogenase 1, mitochondrial (Bos taurus) (P00366 whole entry): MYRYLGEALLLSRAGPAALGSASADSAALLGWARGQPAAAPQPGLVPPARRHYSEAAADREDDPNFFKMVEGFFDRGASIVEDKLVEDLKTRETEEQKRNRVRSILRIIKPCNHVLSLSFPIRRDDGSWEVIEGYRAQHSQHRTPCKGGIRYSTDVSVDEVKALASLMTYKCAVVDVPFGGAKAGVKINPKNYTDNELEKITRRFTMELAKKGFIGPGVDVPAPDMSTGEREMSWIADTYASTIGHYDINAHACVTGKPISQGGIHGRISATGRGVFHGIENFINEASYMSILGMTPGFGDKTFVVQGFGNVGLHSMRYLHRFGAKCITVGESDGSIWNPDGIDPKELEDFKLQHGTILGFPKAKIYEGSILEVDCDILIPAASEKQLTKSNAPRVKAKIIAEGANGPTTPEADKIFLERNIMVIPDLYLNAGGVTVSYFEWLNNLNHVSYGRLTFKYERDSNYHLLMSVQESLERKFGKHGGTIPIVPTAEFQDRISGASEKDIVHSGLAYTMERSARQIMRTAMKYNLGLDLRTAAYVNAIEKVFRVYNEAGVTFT

With `C/C(=C\c1ccc(C2(C(F)(F)F)N=N2)cc1O)C(=O)NCCNP(=O)(O)OP(=O)(O)OC[C@H]1O[C@@H](n2cnc3c(N)ncnc32)[C@H](O)[C@@H]1O`, the result in assay [1] and in assay [2] was Active.

With `C/C(=C\c1ccc(C2(C(F)(F)F)N=N2)cc1O)C(=O)NCCNP(=O)(O)OP(=O)(O)OP(=O)(O)OC[C@H]1O[C@@H](n2cnc3c(N)ncnc32)[C@H](O)[C@@H]1O`, the Activity was determined as 10% in assay [1], 89% in assay [4] and 55% in assay [5]. Also, the Retention time in assay [3] and in assay [7] was 21.1 min in each case. Further, in assay [6], the inhibition was 59%. Besides, the outcome in assay [2] was Active.

For orientation: inhibition means the change of the read-out against control, counted positive when it falls.
